These results are taken from patent US8461107B2 (Merck Sharp & Dohme Corp., priority 2008, dated 2013).

Bounds are passed on as bounds.

As usually defined, the Ki is a measure of affinity in units of concentration, obtained from inhibition or displacement. Low readings indicate tighter binding, high ones weaker binding.

This assay has as its target T1, HCV genotype 1b (BK) NS3 modified with a R155K mutation (Hepatitis C virus genotype 1b, UniProt P26663, R1181K).
T1 construct: HCV genotype 1b (BK) NS3 modified with a R155K mutation
As to the kind of experiment: HCV NS3 protease time-resolved fluorescence (TRF) assay, NS3 protease 1b R155K Ki activity. It is filed as biochemical. To be noted: HCV genotype 1b (BK) NS3 with R155K mutation; TRF peptide substrate 100 nM; Ki derived from IC50. The essentials: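 Pre-incubation of NS3/NS4A protease (genotype 1b BK, R155K) with inhibitor for 30 min, then 1 h at room temperature with 100 nM TRF peptide substrate in pH 7.5 HEPES buffer with 10 mM DTT. Reaction quenched with pH 5.5 MES; time-resolved fluorescence read (ex 340/em 615 nm). Ki derived from four-parameter IC50 fit via IC50=Ki(1+[S]/KM).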
In the case of `C=C[C@@H]1C[C@]1(NC(=O)[C@@H]1C[C@@H]2CN1C(=O)[C@H](C1CCCCC1)NC(=O)O[C@@H]1CCC[C@H]1CCCCCn1c(cc3cc(Cl)ccc3c1=O)O2)C(=O)NS(=O)(=O)C1CC1` [(3aR,7S,10S,12R,25aR)-16-chloro-7-cyclohexyl-N-((1R,2S)-1-{[(cyclopropylsulfonyl)amino]carbonyl}-2-vinylcyclopropyl)-5,8,19-trioxo-1,2,3,3a,5,6,7,8,11,12,21,22,23,24,25,25a-hexadecahydro-10H,19H-9,12-methanocyclopenta[18,19][1,10,3,6,12]dioxatriazacyclononadecino[12,11-b]isoquinoline-10-carboxamide], the Ki was < 0.1 nM.
Under `CC[C@@H]1C[C@]1(NC(=O)[C@@H]1C[C@@H]2CN1C(=O)[C@H](C1CCCC1)NC(=O)O[C@@H]1CCC[C@H]1CCCCCn1c(nc3cc(Cl)ccc3c1=O)O2)C(=O)NS(=O)(=O)C1CC1` [(3aR,7S,10S,12R,25aR)-16-chloro-7-cyclopentyl-N-((1R,2R)-1-{[(cyclopropylsulfonyl)amino]carbonyl}-2-ethylcyclopropyl)-5,8,19-trioxo-1,2,3,3a,5,6,7,8,11,12,21,22,23,24,25,25a-hexadecahydro-10H,19H-9,12-methanocyclopenta[18,19][1,10,3,6,12]dioxatriazacyclononadecino[11,12-b]quinazoline-10-carboxamide] stands 0.1 to 0.5 nM; under `CC[C@@H]1C[C@]1(NC(=O)[C@@H]1C[C@@H]2CN1C(=O)[C@H](C1CCCC1)NC(=O)O[C@@H]1CCC[C@H]1CCCCCn1c(cc3cc(Cl)ccc3c1=O)O2)C(=O)NS(=O)(=O)C1CC1` [(3aR,7S,10S,12R,25aR)-16-chloro-7-cyclopentyl-N-((1R,2R)-1-{[(cyclopropylsulfonyl)amino]carbonyl}-2-ethylcyclopropyl)-5,8,19-trioxo-1,2,3,3a,5,6,7,8,11,12,21,22,23,24,25,25a-hexadecahydro-10H,19H-9,12-methanocyclopenta[18,19][1,10,3,6,12]dioxatriazacyclononadecino[12,11-b]isoquinoline-10-carboxamide], 0.1 to 0.5 nM; under `C=C[C@@H]1C[C@]1(NC(=O)[C@@H]1C[C@@H]2CN1C(=O)[C@H](C1CCCC1)NC(=O)O[C@@H]1CCC[C@H]1CCCCCn1c(nc3cc(Cl)ccc3c1=O)O2)C(=O)NS(=O)(=O)C1CC1` [(3aR,7S,10S,12R,25aR)-16-chloro-7-cyclopentyl-N-((1R,2S)-1-{[(cyclopropylsulfonyl)amino]carbonyl}-2-vinylcyclopropyl)-5,8,19-trioxo-1,2,3,3a,5,6,7,8,11,12,21,22,23,24,25,25a-hexadecahydro-10H,19H-9,12-methanocyclopenta[18,19][1,10,3,6,12]dioxatriazacyclononadecino[11,12-b]quinazoline-10-carboxamide], < 0.1 nM.
Under `C=C[C@@H]1C[C@]1(NC(=O)[C@@H]1C[C@@H]2CN1C(=O)[C@H](C1CCCC1)NC(=O)O[C@@H]1CCC[C@H]1CCCCCn1c(cc3cc(Cl)ccc3c1=O)O2)C(=O)NS(=O)(=O)C1CC1` [(3aR,7S,10S,12R,25aR)-16-chloro-7-cyclopentyl-N-((1R,2S)-1-{[(cyclopropylsulfonyl)amino]carbonyl}-2-vinylcyclopropyl)-5,8,19-trioxo-1,2,3,3a,5,6,7,8,11,12,21,22,23,24,25,25a-hexadecahydro-10H,19H-9,12-methanocyclopenta[18,19][1,10,3,6,12]dioxatriazacyclononadecino[12,11-b]isoquinoline-10-carboxamide] stands < 0.1 nM; under `C=C[C@@H]1C[C@]1(NC(=O)[C@@H]1C[C@@H]2CN1C(=O)[C@H](C1CCCC1)NC(=O)O[C@@H]1CCC[C@H]1CCCCCCn1c(cc3ccccc3c1=O)O2)C(=O)NS(=O)(=O)C1CC1` [(3aR,7S,10S,12R,26aR)-7-cyclopentyl-N-((1R,2S)-1-{[(cyclopropylsulfonyl)amino]carbonyl}-2-vinylcyclopropyl)-5,8,19-trioxo-2,3,3a,5,6,7,8,11,12,21,22,23,24,25,26,26a-hexadecahydro-1H,10H,19H-9,12-methanocyclopenta[19,20][1,10,3,6,12]dioxatriazacycloicosino[12,11-b]isoquinoline-10-carboxamide], 0.1 to 0.5 nM; under `CC[C@@H]1C[C@]1(NC(=O)[C@@H]1C[C@@H]2CN1C(=O)[C@H](C(C)(C)C)NC(=O)O[C@@H]1CCC[C@H]1CCCCCCn1c(cc3ccccc3c1=O)O2)C(=O)NS(=O)(=O)C1CC1` [(3aR,7S,10S,12R,26aR)-7-tert-butyl-N-((1R,2R)-1-{[(cyclopropylsulfonyl)amino]carbonyl}-2-ethylcyclopropyl)-5,8,19-trioxo-2,3,3a,5,6,7,8,11,12,21,22,23,24,25,26,26a-hexadecahydro-1H,10H,19H-9,12-methanocyclopenta[19,20][1,10,3,6,12]dioxatriazacycloicosino[12,11-b]isoquinoline-10-carboxamide], 1 to 5 nM.
In the case of `C=C[C@@H]1C[C@]1(NC(=O)[C@@H]1C[C@@H]2CN1C(=O)[C@H](C(C)(C)C)NC(=O)O[C@@H]1CCC[C@H]1CCCCCCn1c(cc3ccccc3c1=O)O2)C(=O)NS(=O)(=O)C1CC1` [(3aR,7S,10S,12R,26aR)-7-tert-butyl-N-((1R,2S)-1-{[(cyclopropylsulfonyl)amino]carbonyl}-2-vinylcyclopropyl)-5,8,19-trioxo-2,3,3a,5,6,7,8,11,12,21,22,23,24,25,26,26a-hexadecahydro-1H,10H,19H-9,12-methanocyclopenta[19,20][1,10,3,6,12]dioxatriazacycloicosino[12,11-b]isoquinoline-10-carboxamide] it was 0.1 to 0.5 nM.
With `CC[C@@H]1C[C@]1(NC(=O)[C@@H]1C[C@@H]2CN1C(=O)[C@H](C(C)(C)C)NC(=O)O[C@H]1CCC[C@@H]1CCCCCCn1c(cc3ccccc3c1=O)O2)C(=O)NS(=O)(=O)C1CC1` [(3aS,7S,10S,12R,26aS)-7-tert-butyl-N-((1R,2R)-1-{[(cyclopropylsulfonyl)amino]carbonyl}-2-ethylcyclopropyl)-5,8,19-trioxo-2,3,3a,5,6,7,8,11,12,21,22,23,24,25,26,26a-hexadecahydro-1H,10H,19H-9,12-methanocyclopenta[19,20][1,10,3,6,12]dioxatriazacycloicosino[12,11-b]isoquinoline-10-carboxamide], the Ki was 1 to 5 nM.
In the case of `C=C[C@@H]1C[C@]1(NC(=O)[C@@H]1C[C@@H]2CN1C(=O)[C@H](C(C)(C)C)NC(=O)O[C@H]1CCC[C@@H]1CCCCCCn1c(cc3ccccc3c1=O)O2)C(=O)NS(=O)(=O)C1CC1` [(3aS,7S,10S,12R,26aS)-7-tert-butyl-N-((1R,2S)-1-{[(cyclopropylsulfonyl)amino]carbonyl}-2-vinylcyclopropyl)-5,8,19-trioxo-2,3,3a,5,6,7,8,11,12,21,22,23,24,25,26,26a-hexadecahydro-1H,10H,19H-9,12-methanocyclopenta[19,20][1,10,3,6,12]dioxatriazacycloicosino[12,11-b]isoquinoline-10-carboxamide] it was 0.5 to 1 nM; in that of `C=C[C@@H]1C[C@]1(NC(=O)[C@@H]1C[C@@H]2CN1C(=O)[C@H](C1CCCC1)NC(=O)O[C@@H]1CCC[C@H]1C/C=C/CCn1c(cc3ccccc3c1=O)O2)C(=O)NS(=O)(=O)C1CC1` [Example 1, (3aR,7S,10S,12R,23E,25aS)-7-cyclopentyl-N-((1R,2S)-1-{[(cyclopropylsulfonyl)amino]carbonyl}-2-vinylcyclopropyl)-5,8,19-trioxo-1,2,3,3a,5,6,7,8,11,12,21,22,25,25a-tetradecahydro-10H,19H-9,12-methanocyclopenta[18,19][1,10,3,6,12]dioxatiazacyclononadecino[12,11-b]isoquinoline-10-carboxamide], < 0.1 nM.
Under `C=C[C@@H]1C[C@]1(NC(=O)[C@@H]1C[C@@H]2CN1C(=O)[C@H](C1CCCC1)NC(=O)O[C@@H]1CCC[C@H]1CCCCCn1c(cc3ccccc3c1=O)O2)C(=O)NS(=O)(=O)C1CC1` [Example 13, (3aR,7S,10S,12R,25aR)-7-cyclopentyl-N-((1R,2S)-1-{[(cyclopropylsulfonyl)amino]carbonyl}-2-vinylcyclopropyl)-5,8,19-trioxo-1,2,3,3a,5,6,7,8,11,12,21,22,23,24,25,25a-hexadecahydro-10H,19H-9,12-methanocyclopenta[18,19][1,10,3,6,12]dioxatriazacyclotionadecino[12,11-b]isoquinoline-10-carboxamide] stands < 0.1 nM; under `CC[C@@H]1C[C@]1(NC(=O)[C@@H]1C[C@@H]2CN1C(=O)[C@H](C1CCCC1)NC(=O)O[C@@H]1CCC[C@H]1CCCCCn1c(cc3ccc(F)cc3c1=O)O2)C(=O)NS(=O)(=O)C1CC1` [Example 16, (3aR,7S,10S,12R,25aR)-7-cyclopentyl-N-((1R,2R)-1-{[(cyclopropylsulfonyl)amino]carbonyl}-2-ethylcyclopropyl)-17-flouoro-5,8,19-trioxo-1,2,3,3a,5,6,7,8,11,12,21,22,23,24,25,25a-hexadecahydro-10H,19H-9,12-methanocyclopenta[18,19][1,10,3,6,12]dioxatriazacyclononadecino[12,11-b]isoquinoline-10-carboxamide], 0.1 to 0.5 nM.
Regarding `C=C[C@@H]1C[C@]1(NC(=O)[C@@H]1C[C@@H]2CN1C(=O)[C@H](C1CCCC1)NC(=O)O[C@@H]1CCC[C@H]1CCCCn1c(cc3ccccc3c1=O)O2)C(=O)NS(=O)(=O)C1CC1` [Example 19, (3aR,7S,10S,12R,24aR)-7-cyclopentyl-N-((1R,2S)-1-{[(cycloproylsulfonyl)amino]carbonyl}-2-vinylcyclopropyl)-5,8,19-trioxo-2,3,3a,5,6,7,8,11,12,21,22,23,24,24a-tetradecahydro-1H,10H,19H-9,12-methanocyclopenta[17,18][1,10,3,6,12]dioxatriazacyclooctadecino[12,11-b]isoquinoline-10-carboxamide], the Ki was 0.1 to 0.5 nM.
